From US20110230493A1, “1-OXA-8-Azaspiro [4,5] Decabe-8-Carboxamide Compounds as FAAH Inhibitors” (Pfizer Inc., priority 2008, published 2011)

Experiments:
[1] = target: T1, rat FAAH (Rattus norvegicus, UniProt P97612); test: FAAH assay, rat FAAH enzyme inactivation (kinact/Ki); type: biochemical; conditions: pH 7.4, in vitro, oleamide 50 μM, 30° C., read-out: rFAAH kinact/Ki
T1 construct: made in house; host or cells: E. coli
T1 sequence (P97612 1-579): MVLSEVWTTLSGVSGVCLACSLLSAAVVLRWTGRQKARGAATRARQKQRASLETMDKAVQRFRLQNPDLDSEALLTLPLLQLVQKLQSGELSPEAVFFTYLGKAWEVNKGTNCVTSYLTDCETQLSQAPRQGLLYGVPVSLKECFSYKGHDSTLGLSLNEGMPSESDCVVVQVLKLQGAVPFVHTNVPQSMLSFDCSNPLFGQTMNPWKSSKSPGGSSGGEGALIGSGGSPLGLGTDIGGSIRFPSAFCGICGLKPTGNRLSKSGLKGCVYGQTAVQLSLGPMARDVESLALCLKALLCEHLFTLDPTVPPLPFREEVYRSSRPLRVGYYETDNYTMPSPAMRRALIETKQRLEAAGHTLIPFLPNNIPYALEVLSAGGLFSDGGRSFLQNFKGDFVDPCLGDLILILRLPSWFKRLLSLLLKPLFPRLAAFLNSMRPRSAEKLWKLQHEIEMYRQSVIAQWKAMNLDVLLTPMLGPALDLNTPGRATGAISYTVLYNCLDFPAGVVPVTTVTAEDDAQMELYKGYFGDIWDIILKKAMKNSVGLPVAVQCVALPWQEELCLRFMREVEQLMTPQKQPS
Description: (§1) The FAAH assay was carried out in 384-well clear polystyrene plates (Evergreen Scientific) in a total volume of 50 μl per well in a manner similar to that described by Mileni et al., Proc. Nat. Acad. Sci. 2008, 105, 12820-12824. All percents are by volume. Serial dilutions of compound were initially prepared in 100% DMSO, and then diluted two-fold into HPLC-grade H2O to give 50% DMSO. To each well, was placed the reaction mixture (40 μl) containing 1-4 nM FAAH, 50 mM NaPi, pH 7.4, 3 mM α-ketoglutarate, 0.15 mM NADH, 7.5 U/ml glutamate dehydrogenase, 2 mM ADP, 1 mM EDTA, and 0.1% Triton X-100 (The concentration shown for each component is the final concentration in the assay). To this mixture, was added 5 μl of a compound of Examples 1 to 101 at various concentrations in 50% DMSO (or 5 μl 50% DMSO for controls). This was immediately followed by the addition of 5 μl oleamide (500 μM) dissolved in 75% EtOH/25% DMSO and the reaction mixture was mixed for 1.5 min. The final concentrations of DMSO and EtOH in the assay were each 7.5%. The reactions were incubated at 30° C. and the absorbance at 340 nm was collected over a period of 90 min with readings taken in 30-second intervals using SpectraMax Plus^384 Microplate Spectrophotometer (Molecular Devices, Sunnyvale, Calif.). The human FAAH and rat FAAH used in the assay was prepared as described in the patent application WO 2006/067613 using wild-type E. coli cells transformed in St. Louis, Mo., U.S.A. The purity of the enzyme was greater than 98% based on an analysis by SDS-polyacrylamide gel electrophoresis followed by Coomassie Blue staining.
(§2) Reaction progress curves were corrected for the non-enzymatic oxidation of NADH by subtraction of absorbancies at each time point obtained from control reactions containing no FAAH enzyme. The loss of enzyme activity as a function of time is well-described by the following mathematical equation (1) for a mono-exponential decay: […]
(§3) where At represents the absorbance at time t, A0 represents the absorbance at time zero, and C represents a constant. Observed rates of enzyme inactivation (kobs) were determined from the non-linear reaction progress curves by fitting the corrected absorbancies to an equation for a mono-exponential decay using the third-party Microsoft Excel plug-in, XLfit (IDBS Limited). Secondary plots of kobs vs. inhibitor concentration were prepared from kobs values obtained from progress curves. Second-order rates for enzyme inactivation, expressed as kinact/Ki (M^−1 s^−1), were calculated from the slopes from linear regression analysis of the secondary plot of kobs vs. inhibitor concentration as defined in following equation (2), where [I]<<Ki:
(§4) The concentration of substrate in the assay was equal to the Km for oleamide of 50 μM. Therefore, reported kinact/Ki values are obtained by multiplying resulting slopes by a factor of two (i.e. slope=kinact/(Ki*2)).
(§5) Table 1, below, lists human FAAH (hFAAH) and rat FAAH (rFAAH) enzyme inhibition values for Examples 1-101 as a ratio of kinact/Ki (M^−1 s^−1).

[2] = target: T2, human FAAH (Homo sapiens, UniProt O00519); test: FAAH assay, human FAAH enzyme inactivation (kinact/Ki); type: biochemical; conditions: pH 7.4, in vitro, oleamide 50 μM, 30° C., read-out: hFAAH kinact/Ki
T2 construct: made in house; host or cells: E. coli
T2 sequence (O00519 1-579): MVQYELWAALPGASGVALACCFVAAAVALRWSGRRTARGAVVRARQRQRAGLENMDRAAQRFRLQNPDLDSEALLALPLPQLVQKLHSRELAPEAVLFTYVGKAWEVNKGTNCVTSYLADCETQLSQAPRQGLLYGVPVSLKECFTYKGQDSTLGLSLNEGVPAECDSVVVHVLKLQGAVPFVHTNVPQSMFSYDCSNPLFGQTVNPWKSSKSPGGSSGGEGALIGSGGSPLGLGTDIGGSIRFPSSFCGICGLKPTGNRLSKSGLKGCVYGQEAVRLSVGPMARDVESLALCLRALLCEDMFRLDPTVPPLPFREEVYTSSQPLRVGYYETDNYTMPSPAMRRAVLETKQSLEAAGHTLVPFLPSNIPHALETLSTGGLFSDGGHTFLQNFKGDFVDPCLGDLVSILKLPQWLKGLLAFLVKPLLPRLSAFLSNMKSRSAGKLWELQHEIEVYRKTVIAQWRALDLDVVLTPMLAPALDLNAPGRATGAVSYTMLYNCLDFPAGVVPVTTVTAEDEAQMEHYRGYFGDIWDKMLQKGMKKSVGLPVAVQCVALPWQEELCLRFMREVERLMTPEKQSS
Description: as §1, §2, §3, §4, §5

SMILES	kinact/KI [1] [M⁻¹ s⁻¹]	kinact/KI [2] [M⁻¹ s⁻¹]
O=C(Nc1cccnn1)N1CCC2(CC1)CC(c1cccc(Oc3ccc(Cl)cn3)c1)CO2 (racemic) [Example 4, (3RS)-3-{3-[(5-chloropyridin-2-yl)oxy]phenyl}-N-pyridazin-3-yl-1-oxa-8-azaspiro[4.5]decane-8-carboxamide]	3380	2910
O=C(Nc1cccnn1)N1CCC2(CC1)CC(c1cccc(Oc3ccc(Br)cn3)c1)CO2 (racemic) [Example 5, (3RS)-3-{3-[(5-bromopyridin-2-yl)oxy]phenyl}-N-pyridazin-3-yl-1-oxa-8-azaspiro[4.5]decane-8-carboxamide]	3620	2660
O=C(Nc1cccnc1)N1CCC2(CC1)CC(c1cccc(Oc3ccc(Br)cn3)c1)CO2 (racemic) [Example 6, (3RS)-3-{3-[(5-bromopyridin-2-yl)oxy]phenyl}-N-pyridin-3-yl-1-oxa-8-azaspiro[4.5]decane-8-carboxamide]	1750	2320
Cc1noc(NC(=O)N2CCC3(CC2)CC(c2cccc(OC(F)(F)F)c2)CO3)c1C (racemic) [Example 13, (3RS)-N-(3,4-dimethylisoxazol-5-yl)-3-[3-(trifluoromethoxy)phenyl]-1-oxa-8-azaspiro[4.5]decane-8-carboxamide]	3110	1800
Cc1noc(NC(=O)N2CCC3(CC2)CC(c2cccc(Cl)c2)CO3)c1C (racemic) [Example 14, (3RS)-3-(3-chlorophenyl)-N-(3,4-dimethylisoxazol-5-yl)-1-oxa-8-azaspiro[4.5]decane-8-carboxamide]	2670	2040
Cc1noc(NC(=O)N2CCC3(CC2)CC(c2ccc(Cl)c(Cl)c2)CO3)c1C (racemic) [Example 15, (3RS)-3-(3,4-dichlorophenyl)-N-(3,4-dimethylisoxazol-5-yl)-1-oxa-8-azaspiro[4.5]decane-8-carboxamide]	4360	2430
Cc1noc(NC(=O)N2CCC3(CC2)CC(c2cc(F)cc(Cl)c2)CO3)c1C (racemic) [Example 16, (3RS)-3-(3-chloro-5-fluorophenyl)-N-(3,4-dimethylisoxazol-5-yl)-1-oxa-8-azaspiro[4.5]decane-8-carboxamide]	3590	1990
Cc1noc(NC(=O)N2CCC3(CC2)CC(c2ccc(OCc4ccc(F)cc4)cc2)CO3)c1C (racemic) [Example 17, (3RS)-N-(3,4-dimethylisoxazol-5-yl)-3-{4-[(4-fluorobenzyl)oxy]phenyl}-1-oxa-8-azaspiro[4.5]decane-8-carboxamide]	6690	6960
Cc1noc(NC(=O)N2CCC3(CC2)CC(c2ccc(OCc4ccccc4Cl)c(Cl)c2)CO3)c1C (racemic) [Example 18, (3RS)-3-{3-chloro-4-[(2-chlorobenzyl)oxy]phenyl}-N-(3,4-dimethylisoxazol-5-yl)-1-oxa-8-azaspiro[4.5]decane-8-carboxamide]	2840	2290
Cc1noc(NC(=O)N2CCC3(CC2)CC(c2ccc(OCc4ccc(F)cc4)c(Cl)c2)CO3)c1C (racemic) [Example 19, (3RS)-3-{3-chloro-4-[(4-fluorobenzyl)oxy]phenyl}-N-(3,4-dimethylisoxazol-5-yl)-1-oxa-8-azaspiro[4.5]decane-8-carboxamide]	7120	6710
Cc1noc(NC(=O)N2CCC3(CC2)CC(c2ccc(OCc4ccccc4)c(Cl)c2)CO3)c1C (racemic) [Example 20, (3RS)-3-[4-(benzyloxy)-3-chlorophenyl]-N-(3,4-dimethylisoxazol-5-yl)-1-oxa-8-azaspiro[4.5]decane-8-carboxamide]	4390	3970
Cc1noc(NC(=O)N2CCC3(CC2)CC(c2ccc(OCc4cccc(Cl)c4)c(Cl)c2)CO3)c1C (racemic) [Example 21, (3RS)-3-{3-chloro-4-[(3-chlorobenzyl)oxy]phenyl}-N-(3,4-dimethylisoxazol-5-yl)-1-oxa-8-azaspiro[4.5]decane-8-carboxamide]	3550	3100
Cc1noc(NC(=O)N2CCC3(CC2)CC(c2ccc(OCc4cccc(F)c4)cc2)CO3)c1C (racemic) [Example 22, (3RS)-N-(3,4-dimethylisoxazol-5-yl)-3-{4-[(3-fluorobenzyl)oxy]phenyl}-1-oxa-8-azaspiro[4.5]decane-8-carboxamide]	3630	6030
Cc1noc(NC(=O)N2CCC3(CC2)CC(c2ccc(OCc4ccc(Cl)cc4)cc2)CO3)c1C (racemic) [Example 23, (3RS)-3-{4-[(4-chlorobenzyl)oxy]phenyl}-N-(3,4-dimethylisoxazol-5-yl)-1-oxa-8-azaspiro[4.5]decane-8-carboxamide]	10900	6950
Cc1noc(NC(=O)N2CCC3(CC2)CC(c2ccc4c(c2)OCO4)CO3)c1C (racemic) [Example 24, (3RS)-3-(1,3-benzodioxol-5-yl)-N-(3,4-dimethylisoxazol-5-yl)-1-oxa-8-azaspiro[4.5]decane-8-carboxamide]	431	788
Cc1noc(NC(=O)N2CCC3(CC2)CC(c2ccc4ccccc4c2)CO3)c1C (racemic) [Example 25, (3RS)-N-(3,4-dimethylisoxazol-5-yl)-3-(2-naphthyl)-1-oxa-8-azaspiro[4.5]decane-8-carboxamide]	2240	2090
Cc1noc(NC(=O)N2CCC3(CC2)CC(c2ccc(Cl)c(F)c2)CO3)c1C (racemic) [Example 26, (3RS)-3-(4-chloro-3-fluorophenyl)-N-(3,4-dimethylisoxazol-5-yl)-1-oxa-8-azaspiro[4.5]decane-8-carboxamide]	2520	2140
Cc1noc(NC(=O)N2CCC3(CC2)CC(c2ccc(Cl)cc2F)CO3)c1C (racemic) [Example 27, (3RS)-3-(4-chloro-2-fluorophenyl)-N-(3,4-dimethylisoxazol-5-yl)-1-oxa-8-azaspiro[4.5]decane-8-carboxamide]	1140	2090
